Experimental data from patent US7279336B2, “Methods and compositions for enhanced plant cell transformation” (priority 2002, dated 2007).

Experiments:
maize immature embryos = test: Maize transformation experiments with control or histone H2A-1 T-DNA binary vector, with or without anti-oxidant; type: cell-based
From the text: 2. Kan Wang at the Plant Transformation Facility, Iowa State University tested for the present invention in two different Agrobacterium strains. One contains a T-DNA binary vector with a herbicide resistance gene in the T-DNA (this is the control construction)1. The other strain contains a similar T-DAN binary vector, but in addition to the herbicide resistance gene the T-DNA contains the Arabidopsis histone H2A-1 cDNA under the control of maize adh1 promoter and intron. These strains were used in four rounds of maize transformation experiments. […] Several thousand transformations (using the control vector without the histone gene) produced virtually no transformants. In these experiments, there were no transformants (using the control strain) without L-cysteine.

Japonica rice explants = details: 80 mg/L Cys; cited from earlier work
[1] = system: immature zygotic embryos of the maize hybrid line Hi II; test: Agrobacterium tumefaciens (EHA101, standard binary vector pTF102) transformation of maize Hi II immature zygotic embryos
Procedure: A. tumefaciens strain EHA101 (Hood et al., 1986) containing the standard binary vector pTF102 (12.1 kb) was used in all experiments. […] This vector system, pTF 102 in EHA 101, was maintained on yeast extract peptone (YEP) medium (An et al., 1988) containing 100 mg/L spectinomycin (for pTF102) and 50 mg/L kanamycin (for EHA101). Bacteria cultures for weekly experiments were initiated from stock plates that were stored for up to 1 month at 4° C. before being refreshed from long-term, 80° C. glycerol stocks. In all experiments, bacteria cell densities were adjusted to an optical density (OD550) between 0.35 to 0.45 using a spectrophotometer immediately before embryo infection.
F2 immature zygotic embryos (1.5-2.0 mm) of the maize (Zea mays) Hi II hybrid genotype (Armstrong et al., 1991) were aseptically dissected from greenhouse-grown ears harvested 10 to 13 d post pollination. Ears were stored up to 3 d at 4° C. before dissection.
Infection, cocultivation, resting, and selection media were after Zhao et al. (1999) except that cocultivation medium was modified to contain Cys. All these media contained N6 salts and vitamins (Chu et al., 1975), 1.5 mg/L 2,4-dichlorophenoxyacetic acid, and 0.7 g L1 L-Pro in addition to the following ingredients: infection medium contained 68.4 g/L Suc and 36 g/L Glc (pH 5.2) and was supplemented with 100 μM AS (Sigma, St. Louis) before use; cocultivation medium contained 30 g/L Suc, 0.85 mg/L silver nitrate, 100 μM AS, and 3 g/L gelrite (pH 5.8); resting medium contained 30 g/L Suc, 0.5 g/L MES, 0.85 mg/L silver nitrate, 250 mg/L cefotaxime, and 8 g/L purified agar (pH 5.8). Selection medium was identical to resting medium with the addition of 1.5 or 3 mg/L bialaphos (Shinyo Sanyo, Tokyo). Infection medium was filter sterilized, whereas all other media were autoclaved. AS stock solutions (100 mM) were prepared by dissolving AS in 100% (v/v) dimethyl sulfoxide (DMSO) to make a 200 mM stock which was then diluted (1:1 [v/v]) with sterile water and stored in small aliquots at 20° C. Cys was added to cocultivation medium after autoclaving from freshly prepared, filter-sterilized stocks (100 mg/mL) and cocultivation medium was used within 2 to 5 d of preparation. Regeneration I medium contained Murashige and Skoog salts and vitamins (Murashige and Skoog, 1962), 60 g/L Suc, 100 mg/L myo-inositol, no hormones, and 3 g/L gelrite (pH 5.8) after Armstrong and Green (1985). Cefotaxime (250 mg/L) and bialaphos (3 mg/L) were added to this medium after autoclaving. Regeneration II medium differed from medium I in that it contained 30 g/L Suc and no bialaphos.

N[C@@H](CS)C(=O)O [L-cysteine]
infected immature embryos giving transformants (maize immature embryos; control vector without histone gene, with L-cysteine, no transformants without L-cysteine): 2-3%
transformation (maize immature embryos; histone gene vector and L-cysteine): 2-3%
impact on embryogenesis (Japonica rice explants): negative impact
T-DNA delivery to embryogenic-competent scutellum cells of infected embryos ([1]; 400 mg/L Cys in cocultivation medium): increased
stable transformation rates ([1]; Cys as low as 100 mg/L, compared with 400 mg/L, better embryo recovery): Comparable
transient glucuronidase expression in targeted cells ([1]; L-cysteine in cocultivation medium, 400 mg/L): improvement
embryo response after cocultivation ([1]; L-cysteine in cocultivation medium, 400 mg/L vs 0 mg/L): decrease
